Target: T1, CFTR-ΔF508 (Homo sapiens, UniProt P13569, DEL508-508)
T1 construct: expressed in transfected cells
Assay: Cell surface ELISA (anti-HA) in HeLa cells stably expressing HA-tagged CFTR-ΔF508
Format: cell-based
Conditions: HeLa-ΔF508-CFTR-HA cells treated daily with drugs, 72 hr post-treatment, vs DMSO (FIG. 28, 29)

T1 sequence (P13569 with tags, fused parts or gaps DEL508-508): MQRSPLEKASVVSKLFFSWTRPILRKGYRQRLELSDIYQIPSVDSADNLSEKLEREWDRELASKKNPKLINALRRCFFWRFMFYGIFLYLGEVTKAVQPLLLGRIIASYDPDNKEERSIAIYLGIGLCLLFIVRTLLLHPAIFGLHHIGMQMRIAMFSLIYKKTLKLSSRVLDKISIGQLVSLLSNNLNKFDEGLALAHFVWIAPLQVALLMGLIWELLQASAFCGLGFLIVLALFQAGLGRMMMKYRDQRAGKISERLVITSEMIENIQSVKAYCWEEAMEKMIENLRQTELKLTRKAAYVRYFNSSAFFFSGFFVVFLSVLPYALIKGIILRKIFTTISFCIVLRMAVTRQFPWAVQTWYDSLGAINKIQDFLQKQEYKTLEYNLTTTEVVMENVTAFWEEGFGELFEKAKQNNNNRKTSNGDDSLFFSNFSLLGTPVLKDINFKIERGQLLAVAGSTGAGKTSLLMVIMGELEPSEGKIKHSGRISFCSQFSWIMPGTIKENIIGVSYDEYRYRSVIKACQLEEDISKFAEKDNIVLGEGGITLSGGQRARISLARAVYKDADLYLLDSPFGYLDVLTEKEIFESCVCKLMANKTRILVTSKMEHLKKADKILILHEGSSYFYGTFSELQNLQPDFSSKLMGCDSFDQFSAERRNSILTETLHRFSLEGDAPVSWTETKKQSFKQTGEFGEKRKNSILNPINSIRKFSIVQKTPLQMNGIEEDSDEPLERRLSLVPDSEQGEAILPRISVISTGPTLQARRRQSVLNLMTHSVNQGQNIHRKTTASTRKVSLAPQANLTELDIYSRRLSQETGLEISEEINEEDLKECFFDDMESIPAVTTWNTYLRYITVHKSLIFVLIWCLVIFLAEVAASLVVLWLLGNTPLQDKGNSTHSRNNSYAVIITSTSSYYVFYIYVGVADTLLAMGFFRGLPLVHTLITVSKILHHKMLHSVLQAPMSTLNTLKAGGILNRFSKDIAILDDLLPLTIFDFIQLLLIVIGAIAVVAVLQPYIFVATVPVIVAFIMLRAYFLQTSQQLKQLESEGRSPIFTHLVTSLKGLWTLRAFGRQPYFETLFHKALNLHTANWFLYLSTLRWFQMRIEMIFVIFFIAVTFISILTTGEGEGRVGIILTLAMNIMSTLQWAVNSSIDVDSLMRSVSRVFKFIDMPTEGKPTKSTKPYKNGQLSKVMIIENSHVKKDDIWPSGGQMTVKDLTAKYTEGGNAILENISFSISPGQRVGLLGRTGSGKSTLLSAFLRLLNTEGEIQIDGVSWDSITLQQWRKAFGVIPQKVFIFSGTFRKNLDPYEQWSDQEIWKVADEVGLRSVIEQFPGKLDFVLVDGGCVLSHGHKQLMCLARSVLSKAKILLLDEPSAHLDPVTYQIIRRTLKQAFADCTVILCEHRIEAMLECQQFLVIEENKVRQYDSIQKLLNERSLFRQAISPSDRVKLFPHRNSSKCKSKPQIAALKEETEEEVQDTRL

SMILES | surface display of ΔF508-CFTR (live cell-surface ELISA) | surface display of ΔF508-CFTR (live cell-surface ELISA) (listed as pyridostigmine)
CN(C)C(=O)Oc1ccc[n+](C)c1 [Pyridostigmine] | rescues ΔF508-CFTR trafficking | increased
CN(C)C(=O)Oc1cccc([N+](C)(C)C)c1 [Neostigmine, 3-{[(dimethylamino)carbonyl]oxy}-N,N,N-trimethylbenzenaminium] | increased | 
